According to PMC13086964, “USP7 deubiquitinase stabilizes FAN1 to support DNA crosslink repair and suppress CAG repeat expansion” (Nature Communications, 2026):

Test system: HeLa FAN1 KO cells
Assay: clonogenic survival assay, HeLa FAN1 KO
Format: cell-based, human
Conditions: MMC 10, 20, and 40 ng/ml, 24 h, n=3
Procedure: HeLa and RPE-1 p53 KO cells were transfected with the indicated siRNA. The next day, the cells were seeded in six-well plates. The next day, the cells were treated with MMC for 24 h. Plates were then washed twice with 2 ml of PBS before adding fresh growth medium to the cells, that were then cultured for 13 days at 37 °C before fixation with crystal violet solution [0.5% crystal violet and 20% ethanol (w/v)]. For analysis, plates were scanned and analysed with the ImageJ Plugin ColonyArea using the parameter “intensity percent”. […]
the mean (dashed lines) are indicated. Representative images are shown (bottom). Scale bar: 10 μm. […]
Western blot analysis of HeLa cells depleted of the indicated factors. (E) Clonogenic survival assay of the HeLa cells depleted of the indicated factors (Ctrl: black circle; FANCD2: red square; USP7#1: inverted blue triangle; USP7#2: cyan triangle; RAD18: brown diamond) and exposed to increasing doses of MMC for 24 h. Viability of untreated cells was defined as 100%. Data are presented as the means ± SD of four biological replicates (n=4). Representative images are shown (left). (F) Western blot analysis of HeLa and HeLa FAN1 KO cells depleted of the indicated factors. […]

With `CO[C@@]12[C@H](COC(N)=O)C3=C(C(=O)C(C)=C(N)C3=O)N1C[C@@H]1N[C@@H]12` [MMC, Mitomycin C] the “MMC sensitivity, RAD18 or FANCD2 depletion” value was “additive increase in sensitivity” and the “MMC sensitivity, USP7 depletion” value was “did not exacerbate MMC hypersensitivity”.
